Experimental data reported in US20080220444A1, “Bone Marrow Proliferation Assay” (priority 2003, published 2008).

Assays:
[1] = system: human bone marrow cells; assay: Traditional CFU-GM colony-forming assay (myelotoxicity); format: cell-based
Description: Bone marrow was enriched after ficoll hypaque density centrifugation. 1×10^5 bone marrow cells per dish, containing METHOCULT GF H4534 (1% methylcellulose, 30% FBS, 1% BSA, 10^-4 M 2-ME, 2 mM L-gln, 50 ng/mL recombinant human (rh) stem cell factor (SCF), 10 ng/mL rh granulocyte/macrophage-colony stimulating factor (GM-CSF), and 10 ng/mL rh interleukin-3 (IL-3). METHOCULT was obtained from StemCell Technologies (Vancouver, BC, Canada). Cultures were treated with various concentrations of test compounds for the entire culture period. Cultures were performed in duplicate and were incubated for ˜14 days at 37° C. in 5% CO2 and scored for colony growth (colony-forming units-granulocyte/macrophage, or CFU-GM) with a phase-contrast inverted microscope. Colonies containing >50 cells were considered positive.

[2] = system: human bone marrow cells; assay: Bone marrow proliferation assay (3H-thymidine uptake, cytokine-activated cells); format: cell-based; settings: Bone marrow cell; for IC50: concentration inhibiting proliferation by 50%
Description: Bone marrow (BM) was obtained from human donors, collected in Dulbecco's phosphate buffered saline (DPBS) containing 200 units/mL of heparin. The BM cells were then processed as described below. ROSETTESEP™ cocktail was added to the BM cells at a ratio of 50 μL of cocktail per 1 mL of cells in a test tube and the tubes were mixed well by repeated inversion. This mixture was then incubated at room temperature for approximately 20 minutes. A mixture containing PBS/2% FBS/1 mM EDTA was prepared and the BM sample was mixed in a 1:2 ratio (e.g., 10 mL marrow+20 mL PBS/2% FBS/1 mM EDTA) and gently mixed by inversion. […] Cells were counted and viability checked and cells were adjusted to 5×10^5/mL in complete medium containing the following human recombinant growth factors/cytokines at the indicated final concentrations (cytokines may be obtained from various sources; those from StemCell Technologies were used herein): • Stem Cell Factor (50 ng/mL) • GM-CSF (20 ng/mL) • IL-3 (20 ng/mL) • IL-6 (20 ng/mL) • G-CSF (20 ng/mL)
Flat-bottom microtiter tissue culture plates (96 well) were used for the assay. Cells were placed in wells so that each well contained 5×10^4 cells. Typically, cultures were performed in triplicate wells. Wells were brought to a final volume of 200 μL with either complete medium or various concentrations of test compounds, which were diluted in complete medium. Plates were covered with plastic wrap (to reduce evaporation) and placed in a humidified 5% CO2 incubator at 37° C. for 3 days.

[3] = CFU-GM, 336 h, CFU-GM, concentration inhibiting colony growth by 50%, linear regression, ~14 days, mean +/- spread
[4] = CFU-GM, 336 h, CFU-GM, concentration inhibiting colony growth by 90%, linear regression, ~14 days, mean +/- spread
[5] = 72 h, Prolif., linear regression, 3 days, mean +/- spread
[6] = Bone marrow cell, Colony-forming Assay, intra-assay variation, equal to the mean of the five determinations
[7] = Bone marrow cell, Colony-forming Assay, intra-assay variation, individual determinations
[8] = 72 h, Prolif., concentration inhibiting proliferation by 90%, linear regression, 3 days, mean +/- spread, read-out: IC90

Cc1cn([C@H]2C[C@H](N=[N+]=[N-])[C@@H](CO)O2)c(=O)[nH]c1=O [AZT, 3′-azido-3′-deoxythymidine]
IC50 [1, 3]: 34500 nM
IC90 [1, 4]: 387000 nM
IC90 ([2]; 72 h): 146000 nM
IC50 [2, 5]: 17100 nM

COc1cccc2c1C(=O)c1c(O)c3c(c(O)c1C2=O)C[C@@](O)(C(=O)CO)C[C@@H]3O[C@H]1C[C@H](N)[C@H](O)[C@H](C)O1 [Doxorubicin, doxorubicin]
IC50 [1, 6]: 29.1 nM
IC90 [1, 6]: 69.2 nM
IC50 [1, 7]: 34.2 nM
IC90 [1, 7]: 72.4 nM
IC50 [1, 3]: 40 nM
IC90 [1, 4]: 132 nM
IC90 [2, 8]: 68 nM
IC90 ([2]; Proliferation Assay, intra-assay variation, equal to the mean of the five determinations, read-out: IC90): 70.2 nM
IC90 ([2]; Proliferation Assay, intra-assay variation, individual determinations, read-out: IC90): 71.2 nM

Nc1ccn([C@@H]2O[C@H](CO)[C@@H](O)C2(F)F)c(=O)n1 [Gemcitabine, gemcitabine]
IC50 [1, 3]: 1.3 nM
IC90 [1, 4]: 4.2 nM
IC50 [2, 5]: 1.2 nM
IC90 [2, 8]: 4.4 nM

CC(=O)O[C@H]1C(=O)[C@@]2(C)[C@H]([C@H](OC(=O)c3ccccc3)[C@]3(O)C[C@H](OC(=O)[C@H](O)[C@@H](NC(=O)c4ccccc4)c4ccccc4)C(C)=C1C3(C)C)[C@]1(OC(C)=O)CO[C@@H]1C[C@@H]2O [Paclitaxel, paclitaxel]
IC50 [1, 3]: 3.4 nM
IC90 [1, 4]: 6 nM
IC50 [2, 5]: 1.9 nM
IC90 [2, 8]: 4.9 nM

Nc1ccn([C@@H]2S[C@H](CO)[C@@H](O)[C@@H]2O)c(=O)n1 [Thio-ara-C, thio-ara-C]
IC50 [1, 3]: 40.3 nM
IC90 [1, 4]: 122 nM
IC50 [2, 5]: 75 nM
IC90 [2, 8]: 301 nM
